From patent US8541418B2, “Inhibitors of polo-like kinase” (Elan Pharmaceutical, Inc., priority 2009, dated 2013) come the findings set out here.

What all share (format): biochemical
The target of experiment [1] is PLK1 (Homo sapiens, UniProt P53350). The experiment can be described thus: PLK TR-FRET peptide assay, PLK1. As to conditions: GST-PLK1, 60 min reaction.
The target in experiment [2] is PLK2 (Homo sapiens, UniProt Q9NYY3). Briefly: PLK TR-FRET peptide assay, PLK2. To be noted: for IC50: PLK TR-FRET peptide assay, GST-PLK2, 60 min reaction, read-out: Plk2 IC50; for relative PLK2 activity of the enantiomers: compared with the opposite enantiomer. For orientation: In TR-FRET formats the signal depends on donor and acceptor labels being close together.
PLK2, sequence (Q9NYY3 whole entry): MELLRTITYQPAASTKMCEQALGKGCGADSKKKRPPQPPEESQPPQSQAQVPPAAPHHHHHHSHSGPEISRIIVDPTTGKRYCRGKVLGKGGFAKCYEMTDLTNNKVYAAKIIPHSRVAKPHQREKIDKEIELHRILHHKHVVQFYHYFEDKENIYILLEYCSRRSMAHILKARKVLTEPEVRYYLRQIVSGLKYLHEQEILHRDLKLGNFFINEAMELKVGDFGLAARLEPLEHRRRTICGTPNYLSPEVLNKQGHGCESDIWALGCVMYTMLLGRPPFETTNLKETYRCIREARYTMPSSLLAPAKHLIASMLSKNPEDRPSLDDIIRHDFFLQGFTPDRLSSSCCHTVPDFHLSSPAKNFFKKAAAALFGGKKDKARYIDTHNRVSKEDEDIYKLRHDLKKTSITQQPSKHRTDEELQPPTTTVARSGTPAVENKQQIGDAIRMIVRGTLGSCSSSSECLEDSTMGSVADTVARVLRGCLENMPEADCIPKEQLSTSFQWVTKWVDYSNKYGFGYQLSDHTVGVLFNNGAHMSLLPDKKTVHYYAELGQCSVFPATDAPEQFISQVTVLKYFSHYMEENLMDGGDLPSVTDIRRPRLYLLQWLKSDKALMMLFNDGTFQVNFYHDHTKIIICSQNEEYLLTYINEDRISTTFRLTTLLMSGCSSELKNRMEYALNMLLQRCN
Experiment [3] deals with PLK3 (Homo sapiens, UniProt Q9H4B4). The experiment can be described thus: PLK TR-FRET peptide assay, PLK3. As to conditions: GST-PLK3, 15 min reaction, read-out: Plk3 IC50.
PLK3, sequence (Q9H4B4 whole entry): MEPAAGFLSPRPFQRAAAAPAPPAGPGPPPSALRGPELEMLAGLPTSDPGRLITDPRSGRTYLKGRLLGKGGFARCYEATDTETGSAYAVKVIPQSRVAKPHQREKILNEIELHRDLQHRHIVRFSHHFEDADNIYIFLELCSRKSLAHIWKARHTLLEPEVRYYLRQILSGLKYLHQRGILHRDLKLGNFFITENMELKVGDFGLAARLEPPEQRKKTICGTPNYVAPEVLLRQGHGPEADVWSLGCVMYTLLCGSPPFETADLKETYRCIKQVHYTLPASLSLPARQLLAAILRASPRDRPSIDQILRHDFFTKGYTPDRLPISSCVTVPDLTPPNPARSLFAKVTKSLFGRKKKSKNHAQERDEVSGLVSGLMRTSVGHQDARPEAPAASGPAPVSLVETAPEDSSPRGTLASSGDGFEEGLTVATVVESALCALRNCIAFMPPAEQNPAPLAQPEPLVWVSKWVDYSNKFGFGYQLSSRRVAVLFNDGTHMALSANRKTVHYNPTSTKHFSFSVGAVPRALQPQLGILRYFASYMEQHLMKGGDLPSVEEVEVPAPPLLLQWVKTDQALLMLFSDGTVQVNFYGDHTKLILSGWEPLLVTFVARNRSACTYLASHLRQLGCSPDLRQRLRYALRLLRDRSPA

PLK1, sequence (P53350 whole entry): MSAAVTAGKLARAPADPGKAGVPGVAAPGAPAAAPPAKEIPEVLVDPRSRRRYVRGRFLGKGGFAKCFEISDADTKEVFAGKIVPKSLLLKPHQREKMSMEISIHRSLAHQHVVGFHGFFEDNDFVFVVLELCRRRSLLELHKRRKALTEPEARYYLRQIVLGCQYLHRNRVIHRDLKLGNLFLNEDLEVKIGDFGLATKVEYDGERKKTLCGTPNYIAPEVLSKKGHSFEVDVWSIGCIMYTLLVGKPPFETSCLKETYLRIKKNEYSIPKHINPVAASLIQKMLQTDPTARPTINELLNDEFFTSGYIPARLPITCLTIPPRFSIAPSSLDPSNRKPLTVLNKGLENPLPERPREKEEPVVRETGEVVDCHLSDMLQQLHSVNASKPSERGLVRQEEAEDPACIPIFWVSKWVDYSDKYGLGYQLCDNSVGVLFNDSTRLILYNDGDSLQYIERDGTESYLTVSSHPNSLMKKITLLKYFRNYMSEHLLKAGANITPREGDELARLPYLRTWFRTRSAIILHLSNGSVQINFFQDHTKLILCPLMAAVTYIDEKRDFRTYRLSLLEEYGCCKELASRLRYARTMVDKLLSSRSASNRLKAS

For the molecule `CC[C@@H]1C(=O)N(C)c2cnc(-c3c[nH]nc3-c3ccc(C(F)(F)F)cc3)nc2N1C(C)C` [Example 167, (R)-7-ethyl-8-isopropyl-5-methyl-2-(3-(4-(trifluoromethyl)phenyl)-1H-pyrazol-4-yl)-7,8-dihydropteridin-6(5H)-one], the IC50 in experiment [1] was 1 to 10 µM; in experiment [2], less than 1 µM; in experiment [3] it was 10 to 50 µM.

Consider `[2H]C([2H])([2H])N1C(=O)[C@@H](C([2H])([2H])C([2H])([2H])[2H])N(C([2H])(C([2H])([2H])[2H])C([2H])([2H])[2H])c2nc(-n3ccnc3-c3cc(F)cc(F)c3)ncc21` [Example 179, (R)-2-(2-(3,5-difluorophenyl)-1H-imidazol-1-yl)-7-perdeuteroethyl-8-perdeuteroisopropyl-5-trideuteromethyl-7,8-dihydropteridin-6(5H)-one], for which the IC50 was less than 1 µM in experiment [1], less than 1 µM in experiment [2] and 1 to 10 µM in experiment [3].

For `[2H]C([2H])([2H])N1C(=O)[C@@H](C([2H])([2H])C([2H])([2H])[2H])N(C([2H])(C([2H])([2H])[2H])C([2H])([2H])[2H])c2nc(-n3ccnc3-c3cccc(F)c3)ncc21` [Example 202, (R)-7-perdeuteroethyl-2-(2-(3-fluorophenyl)-1H-imidazol-1-yl)-8-perdeuteroisopropyl-5-trideuteromethyl-7,8-dihydropteridin-6(5H)-one], the IC50 in experiment [1] is less than 1 µM; in experiment [2] it was less than 1 µM; in experiment [3], 1 to 10 µM. Also, the “relative PLK2 activity of the enantiomers” value in experiment [2] was “more active compound”.

As to `CC[C@@H]1C(=O)N(C)c2cnc(-c3ccncc3NC(=O)OC)nc2N1C1CCCC1` [Example 114, (R)-methyl 4-(8-cyclopentyl-7-ethyl-5-methyl-6-oxo-5,6,7,8-tetrahydropteridin-2-yl)pyridin-3-ylcarbamate], the IC50 in experiment [1] is 1 to 10 µM; in experiment [2] it was less than 1 µM; in experiment [3], 10 to 50 µM.

For the molecule `CC[C@@H]1C(=O)N(C)c2cnc(-n3ccnc3-c3cccc(F)c3F)nc2N1CCC(F)(F)F` [Example 254, (R)-2-(2-(2,3-difluorophenyl)-1H-imidazol-1-yl)-7-ethyl-5-methyl-8-(3,3,3-trifluoropropyl)-7,8-dihydropteridin-6(5H)-one], the IC50 was less than 1 µM in experiment [1], less than 1 µM in experiment [2] and 1 to 10 µM in experiment [3].

On to `CC[C@@H]1C(=O)N(C)c2cnc(-c3ccncc3CNC(C)=O)nc2N1C(C)C` [Example 129, (R)—N-((4-(7-ethyl-8-isopropyl-5-methyl-6-oxo-5,6,7,8-tetrahydropteridin-2-yl)pyridin-3-yl)methyl)acetamide], for which the figures for the IC50 in experiment [1], in experiment [2] and in experiment [3] were more than 50 µM, 10 to 50 µM and more than 50 µM, respectively.

For the molecule `[2H]C([2H])([2H])N1C(=O)C(C([2H])([2H])C([2H])([2H])[2H])N(C([2H])(C([2H])([2H])[2H])C([2H])([2H])[2H])c2nc(-n3ccnc3-c3cccc(C(F)(F)F)c3)ncc21` (centres unmarked) [Example 172, 7-ethyl-8-isopropyl-5-methyl-2-(2-(3-(trifluoromethyl)phenyl)-1H-imidazol-1-yl)-7,8-dihydropteridin-6(5H)-one], the figures for the IC50 in experiment [1], in experiment [2] and in experiment [3] were 1 to 10 µM, less than 1 µM and more than 50 µM, respectively.

Consider `CCC1C(=O)N(C)c2cnc(-n3ccnc3)nc2N1c1ccccc1` (centres unmarked) [Example 300, 7-ethyl-2-(1H-imidazol-1-yl)-5-methyl-8-phenyl-7,8-dihydropteridin-6(5H)-one], for which the values for the IC50 in experiment [1], in experiment [2] and in experiment [3] were 1 to 10 µM, 1 to 10 µM and more than 50 µM, respectively.

Consider `[2H]C([2H])([2H])N1C(=O)C(C([2H])([2H])C([2H])([2H])[2H])N(C([2H])(C([2H])([2H])[2H])C([2H])([2H])[2H])c2nc(-n3ccnc3-c3ccc(C(F)(F)F)cc3)ncc21` (centres unmarked) [Example 161, 7-perdeuteroethyl-8-perdeuteroisopropyl-5-trideuteromethyl-2-(2-(4-(trifluoromethyl)phenyl)-1H-imidazol-1-yl)-7,8-dihydropteridin-6(5H)-one], for which the IC50 was 1 to 10 µM in experiment [1], less than 1 µM in experiment [2] and 1 to 10 µM in experiment [3].

`CCC1C(=O)N(C)c2cnc(-n3ccnc3-c3ccc(F)cc3)nc2N1c1cccc(-c2cncnc2)c1` (centres unmarked) [Example 346, 7-ethyl-2-(2-(4-fluorophenyl)-1H-imidazol-1-yl)-5-methyl-8-(3-(pyrimidin-5-yl)phenyl)-7,8-dihydropteridin-6(5H)-one]: the IC50 in experiment [1] is 1 to 10 µM; in experiment [2] it was less than 1 µM; in experiment [3] it was 1 to 10 µM.

Turning to `CC[C@@H]1C(=O)N(C)c2cnc(-n3cccn3)nc2N1C1CCCC1` [Example 42, (R)-8-cyclopentyl-7-ethyl-5-methyl-2-(1H-pyrazol-1-yl)-7,8-dihydropteridin-6(5H)-one], the values for the 50% inhibitory concentration (IC50) in experiment [1], in experiment [2] and in experiment [3] were 1 to 10 µM, less than 1 µM and 10 to 50 µM, respectively.

On to `CC[C@@]12CCCCN1c1nc(-n3ccnc3-c3cc(F)cc(F)c3)ncc1N(C)C2=O` [Example 249, (S)-2-(2-(3,5-difluorophenyl)-1H-imidazol-1-yl)-6a-ethyl-5-methyl-7,8,9,10-tetrahydro-5H-pyrido[2,1-h]pteridin-6(6aH)-one], for which the half-inhibitory concentration (IC50) in experiment [1] was 1 to 10 µM; in experiment [2], less than 1 µM; in experiment [3], more than 50 µM. For the same molecule, in experiment [2], the “relative PLK2 activity of the enantiomers” value is “more active compound”.

As to `CCC1C(=O)N(C)c2cnc(-c3cn[nH]c3-c3nccs3)nc2N1c1ccc(F)cc1` (centres unmarked) [Example 370], the IC50 is less than 1 µM in experiment [1], less than 1 µM in experiment [2] and 1 to 10 µM in experiment [3].

As for `CC[C@@H]1C(=O)N(C)c2cnc(-n3ccnc3C3CCOCC3)nc2N1C1CCCC1` [Example 90, (R)-8-cyclopentyl-7-ethyl-5-methyl-2-(2-(tetrahydro-2H-pyran-4-yl)-1H-imidazol-1-yl)-7,8-dihydropteridin-6(5H)-one], the values for the IC50 in experiment [1], in experiment [2] and in experiment [3] were 1 to 10 µM, 1 to 10 µM and 10 to 50 µM, respectively.

Regarding `CC[C@@H]1C(=O)N(C)c2cnc(-c3nccs3)nc2N1C1CCCC1` [Example 330, (R)-8-cyclopentyl-7-ethyl-5-methyl-2-(thiazol-2-yl)-7,8-dihydropteridin-6(5H)-one], the figures for the IC50 in experiment [1], in experiment [2] and in experiment [3] were 1 to 10 µM, less than 1 µM and 10 to 50 µM, respectively.

`CCC12CCCCCN1c1nc(-n3nccc3-c3ccccc3)ncc1N(C)C2=O` (centres unmarked) [Example 209, 6a-ethyl-5-methyl-2-(5-phenyl-1H-pyrazol-1-yl)-6a,7,8,9,10,11-hexahydroazepino[2,1-h]pteridin-6(5H)-one]: the IC50 lay in the range of 10 to 50 µM in experiment [1], 1 to 10 µM in experiment [2] and 10 to 50 µM in experiment [3].

As for `CC[C@@H]1C(=O)N(C)c2cnc(-c3cnoc3-c3ccc(F)cc3)nc2N1C(C)C` [Example 173, (R)-7-ethyl-2-(5-(4-fluorophenyl)isoxazol-4-yl)-8-isopropyl-5-methyl-7,8-dihydropteridin-6(5H)-one], the IC50 in experiment [1] is 1 to 10 µM; in experiment [2], less than 1 µM; in experiment [3] it was 10 to 50 µM.

Turning to `CCC1C(=O)N(C)c2cnc(-n3ccnc3)nc2N1c1cccc(-c2cncnc2)c1` (centres unmarked) [Example 333, 7-ethyl-2-(1H-imidazol-1-yl)-5-methyl-8-(3-(pyrimidin-5-yl)phenyl)-7,8-dihydropteridin-6(5H)-one], the IC50 in experiment [1] is 10 to 50 µM; in experiment [2], 10 to 50 µM; in experiment [3], more than 50 µM.

On to `CC[C@@]12CCCN1c1nc(N3CCN=C3c3ccccc3)ncc1N(C)C2=O` [Example 281, (S)-6a-ethyl-5-methyl-2-(2-phenyl-4,5-dihydro-1H-imidazol-1-yl)-6a,7,8,9-tetrahydropyrrolo[2,1-h]pteridin-6(5H)-one], for which the figures for the IC50 in experiment [1], in experiment [2] and in experiment [3] were more than 50 µM, less than 1 µM and 10 to 50 µM, respectively.

Turning to `CN1C(=O)[C@H](CC(F)(F)F)N(CCC(F)(F)F)c2nc(-n3ccnc3-c3ccc(F)cc3F)ncc21` [Example 294, (S)-2-(2-(2,4-difluorophenyl)-1H-imidazol-1-yl)-5-methyl-7-(2,2,2-trifluoroethyl)-8-(3,3,3-trifluoropropyl)-7,8-dihydropteridin-6(5H)-one], the IC50 in experiment [1] is more than 50 µM; in experiment [2], 10 to 50 µM; in experiment [3], more than 50 µM.

With `CC[C@@H]1C(=O)N(C)c2cnc(-n3ccnc3-c3cccnc3)nc2N1C1CCCC1` [Example 67, (R)-8-cyclopentyl-7-ethyl-5-methyl-2-(2-(pyridin-3-yl)-1H-imidazol-1-yl)-7,8-dihydropteridin-6(5H)-one], the IC50 in experiment [1], in experiment [2] and in experiment [3] was less than 1 µM in each case.

`CC[C@@H]1C(=O)N(C)c2cnc(-c3ccncc3-c3ccccc3)nc2N1C1CC1` [Example 142, (R)-8-cyclopropyl-7-ethyl-5-methyl-2-(3-phenylpyridin-4-yl)-7,8-dihydropteridin-6(5H)-one]: the IC50 in experiment [1] was 10 to 50 µM; in experiment [2] it was less than 1 µM; in experiment [3], 10 to 50 µM.

Regarding `CC[C@]12CCCCN1c1nc(-n3ccnc3-c3ccccc3)ncc1N(C)C2=O` [Example 263, (R)-6a-ethyl-5-methyl-2-(2-phenyl-1H-imidazol-1-yl)-7,8,9,10-tetrahydro-5H-pyrido[2,1-h]pteridin-6(6aH)-one], the IC50 was more than 50 µM in experiment [1], 10 to 50 µM in experiment [2] and more than 50 µM in experiment [3].

In the case of `CC[C@@H]1C(=O)N(C)c2cnc(-c3ccncc3-c3ccccc3)nc2N1C1CCCC1` [Example 85, (R)-8-cyclopentyl-7-ethyl-5-methyl-2-(3-phenylpyridin-4-yl)-7,8-dihydropteridin-6(5H)-one], the IC50 in experiment [1], in experiment [2] and in experiment [3] was less than 1 µM each time.

On to `CC[C@@H]1C(=O)N(C)c2cnc(-c3ccncc3NC(C)=O)nc2N1C(C)C` [Example 118, (R)—N-(4-(7-ethyl-8-isopropyl-5-methyl-6-oxo-5,6,7,8-tetrahydropteridin-2-yl)pyridin-3-yl)acetamide], for which the IC50 was more than 50 µM in experiment [1], 1 to 10 µM in experiment [2] and more than 50 µM in experiment [3].

What is called IC50 is the concentration at which inhibition is half-maximal.
